# Paper PMC9241695, “Selective Metal Chelation by a Thiosemicarbazone Derivative Interferes with Mitochondrial Respiration and Ribosome Biogenesis in Candida albicans” (Microbiology Spectrum, 2022)
# Key:
# A. fumigatus AF293 = assay: Antifungal susceptibility testing, microbroth dilution MIC; assay type: cell-based; conditions: Aspergillus fumigatus, AF293; standard strain of A. fumigatus; 48 h; read-out: MIC (μg/mL) against fungi AF293
# From the text: (§1) Compound library. The thiosemicarbazone derivatives Triapine and COTI-2 were purchased from Med Chem Express (MCE). The other 87 thiosemicarbazones used in this study were previously synthesized by our collaborators (1, 2). Their structures are shown in Table 1 and Table S1 to help the reader clearly understand the relationship between structure and activity.
# (§2) Strains and culture conditions. Clinically derived C. albicans isolates, including G5, F5, and Gu5, were kindly provided by Professor Joachim Morschhäuser of the University of Würzburg. Other clinical C. albicans isolates were kindly donated by Professor Qingguo Qi of Shandong University and Qianfoshan Hospital of Shandong Province Other Candida strains were obtained from Jinan Central Hospital.
# (§3) The zap1 mutant and its complemented strain were kindly provided by Professor Aaron P. Mitchell of Carnegie Mellon University (3). The C. neoformans strains used in this study was kindly donated by Professor Guojian Liao of Southwest University and A. fumigatus strain used in this study was provided by Professor Ling Lu of Nanjing Normal University. […]
# (§4) Antifungal susceptibility testing. To determine in vitro antifungal activities, the microbroth dilution method was carried out in RPMI1640 medium according to the guidelines of the Clinical and Laboratory Standards Institute (4, 5). The initial concentration in RPMI1640 medium was 1 × 10^3 CFU/mL for the C. albicans and C. neoformans suspensions but 1 × 10^4 CFU/mL for A. fumigatus. The range of final drug concentrations was 0.0156–64 μg/mL. The plates were incubated at35°C for 24 […]
# (§5) h (for C. albicans, C. krusei, C. tropicalis, C. parapsilosis) or 48 h (for C. neoformans, A. fumigatus). The MIC was determined based on visible growth inhibition compared with the control. All experiments were performed in duplicate. […]
# C. neoformans H99 = assay: as above; assay type: cell-based; conditions: Cryptococcus neoformans, H99; C. neoformans wild-type strain; 48 h; read-out: MIC (μg/mL) against fungi H99
# From the text: as §1, §2, §3, §4, §5
# C. albicans SC5314 = assay: Minimal fungicidal concentration (MFC); assay type: cell-based; conditions: Candida albicans, read-out: MFC against C. albicans SC5314
# C. krusei CK1 = assay: Microbroth dilution MIC80; assay type: cell-based, Candida krusei; conditions: Pichia kudriavzevii, CK1
# From the text: as §1, §2
# as §3, with “University. Before in vitro and in vivo experiments, all C. albicans strains were grown on YPD agar plates. After culturing at 30°C for 24 h, colonies of each strain were cultured in liquid YPD medium at 30°C with continuous shaking” for “University.”
# as §4, §5
# C. albicans G5 = assay: microbe, parasite or virus in culture; assay type: cell-based; conditions: Candida albicans, G5
# From the text: as §1, §2
# as §3, with “University. Before in vitro and in vivo experiments, all C. albicans strains were grown on YPD agar plates. After culturing at 30°C for 24 h, colonies of each strain were cultured in liquid YPD medium at 30°C with continuous shaking” for “University.”
# as §4, §5
# C. albicans Gu5 = assay: microbe, parasite or virus in culture; assay type: cell-based; conditions: Candida albicans, GU5
# From the text: as §1, §2
# as §3, with “University. Before in vitro and in vivo experiments, all C. albicans strains were grown on YPD agar plates. After culturing at 30°C for 24 h, colonies of each strain were cultured in liquid YPD medium at 30°C with continuous shaking” for “University.”
# as §4, §5
# [1] = system: human hepatocellular carcinoma cell line HepG2; assay: Cytotoxicity testing (MTT); assay type: cell-based; conditions: ratio of IC50 against HepG2 to MIC80 against C. albicans SC5314
# [2] = Cytotoxicity testing (MTT); assay type: cell-based, human; conditions: human, HepG2 cells (hepatocellular carcinoma cell line)
# [3] = Cytotoxicity testing (MTT); assay type: cell-based, human; conditions: human, 48 h, MTT
# Method: (§6) h (for C. albicans, C. krusei, C. tropicalis, C. parapsilosis) or 48 h (for C. neoformans, A. fumigatus). The MIC was determined based on visible growth inhibition compared with the control. All experiments were performed in duplicate.
# (§7) Cytotoxicity testing. The cell lines HK2 and 16HBE were used to evaluate the cytotoxicity of 19ak, 19k and 19t. Cells in DMEM containing 10% fetal bovine serum (Gibco) were seeded in 96-well tissue culture plates at a cell density of 1 × 10^4 cells/mL and incubated for 24 h to allow adhesion. The supernatant was then replaced with fresh DMEM containing various concentrations of 19ak, 19k and 19t. The plates were subsequently incubated for an additional 48 h at 37°C with 5% CO2, followed by the addition of 10 μL of MTT solution to each well and incubation at 37°C for 4 h.
# (§8) The effects of the compounds on cell proliferation were detected by measuring the absorbance at 570 nm in a microplate reader (BioTek, VT, USA). Three independent experiments were conducted. […]
# [4] = system: human bronchial epithelial cell line 16HBE; assay: Cytotoxicity testing (MTT); assay type: cell-based; conditions: ratio of IC50 against 16HBE to MIC80 against C. albicans SC5314
# Method: as §6, §7, §8
# [5] = system: human renal epithelial cell line HK2; assay: Cytotoxicity testing (MTT); assay type: cell-based; conditions: ratio of IC50 against HK2 to MIC80 against C. albicans SC5314
# Method: as §6, §7, §8
# C. albicans DSY654 = assay: Microbroth dilution MIC80; assay type: cell-based; conditions: Candida albicans
# From the text: as §1, §2
# as §3, with “University. Before in vitro and in vivo experiments, all C. albicans strains were grown on YPD agar plates. After culturing at 30°C for 24 h, colonies of each strain were cultured in liquid YPD medium at 30°C with continuous shaking” for “University.”
# as §4, §5
# C. albicans YEM15 = assay: Microbroth dilution MIC80; assay type: cell-based; conditions: Candida albicans, YEM15
# From the text: as §1, §2
# as §3, with “University. Before in vitro and in vivo experiments, all C. albicans strains were grown on YPD agar plates. After culturing at 30°C for 24 h, colonies of each strain were cultured in liquid YPD medium at 30°C with continuous shaking” for “University.”
# as §4, §5
# C. neoformans 108 = assay: Microbroth dilution MIC80; assay type: cell-based; conditions: Cryptococcus neoformans, 108
# From the text: as §1, §2
# as §3, with “University. Before in vitro and in vivo experiments, all C. albicans strains were grown on YPD agar plates. After culturing at 30°C for 24 h, colonies of each strain were cultured in liquid YPD medium at 30°C with continuous shaking” for “University.”
# as §4, §5
compound,measurement,setting,value
C/C(=N\NC(=S)Nc1ccc(Br)cc1)c1ccccn1 [Compound 19t],MIC,A. fumigatus AF293,0.125 µg/mL
same,MIC,C. neoformans H99,0.031 µg/mL
same,MFC,C. albicans SC5314,64 mg/L
same,MIC80,C. krusei CK1,0.5 mg/L
same,MIC80,C. albicans G5,1 mg/L
same,MIC80,C. albicans Gu5,1 mg/L
same,Selectivity index HepG2,[1],2.778
same,IC50,[2],1.39 mg/L
same,IC50 at 48 h,"[3]; 16HBE cells (bronchial epithelial cell line), 16HBE cells",1.43 mg/L
same,IC50 at 48 h,"[3]; HK2 cells (renal epithelial cell line), HK2 cells",3.46 mg/L
same,Selectivity index 16HBE,[4],2.858
same,Selectivity index HK2,[5],6.918
same,MIC80,C. albicans DSY654,0.25 mg/L
same,MIC80,C. albicans YEM15,1 mg/L
same,MIC80,C. neoformans 108,0.031 mg/L
